The nature of this series: gradient 5% acetonitrile 3 min, to 50% in 2 min, to 85% in 15 min, held 3 min, 100 µL/min. Particulars: column: Zorbax Extend-C18 2.1 x 50 mm; eluents: water / acetonitrile, 0.1% formic acid. The method in brief:
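Each retention time is based on an adduct peak selected computationally and verified by manual inspection. Measurements used HPLC–quadrupole time-of-flight mass spectrometry in positive and negative ionization mode on mixtures of ~100 pure standards. Chromatography ran on a Zorbax Extend-C18 column (2.1 × 50 mm, 1.8 μm) at 100 μL/min with water and acetonitrile, each containing 0.1% formic acid, and dead and dwell volumes of 40 μL and 900 μL.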
In the case of `COc1ccc(OC)c(NC(=O)C2CCCN(c3nnc4ccccn34)C2)c1` (stereo unspecified), the RP-LC retention time is 667 s. On to `CN(CCc1noc(COc2ccc(Cl)cc2Cl)n1)C(=O)c1ccco1`, for which the RP-LC retention time stood at 898 s. In the case of `CCN1CCN(C(=O)CS(=O)Cc2cnn(-c3ccccc3)c2-n2cccc2)CC1` (stereo unspecified) it was 614 s; in that of `COc1cc(OC)cc(-c2nc(-c3ccc4c(c3)oc(=O)n4C)no2)c1`, 1060 s. Next, `CC(C)CN1C(=O)CSc2cnn(CC(=O)N3CCN(c4ccccc4)CC3)c(=O)c21`: 823 s; `CN1C(=O)Cc2cc(S(=O)(=O)CCC(=O)N3CCN(c4ccccn4)CC3)ccc21`: 902 s; `COc1ccc(Cl)cc1NC(=O)CN1C(=O)CCSc2ccccc21`: 956 s.

In turn, `CCCN1C(=O)COc2ccc(-c3noc(/C=C/c4ccccc4)n3)cc21` registered an RP-LC retention time of 1250 s. Turning to `Cc1cc(C)n2nc(SCC(=O)NC3CCCC(C)C3C)nc2n1` (stereo unspecified), the RP-LC retention time came out at 776 s.

The compound `CC(C)(C)NC(=O)Nc1nnc(SCc2c(F)cccc2Cl)s1` yielded an RP-LC retention time of 946 s. On to `Cc1ccc(N2C(=O)CN(S(=O)(=O)c3ccccc3)CC2(C)C(=O)NC2CCCC2)c(C)c1` (stereo unspecified), for which the RP-LC retention time was 983 s. Regarding `CC(C)N1CCC2(CC1)CN(C(=O)NCc1ccco1)Cc1ccccc1O2`, the RP-LC retention time came out at 650 s. In the case of `O=C(N[C@H]1C[C@@H]2C[C@H]1CN2C(=O)c1ccc(OC(F)(F)F)cc1)c1ccccc1` it was 786 s; in that of `COC(=O)c1ccc(N2Cc3cc(Cl)ccc3OCC2=O)cc1`, 877 s. `CC1(C)CC2CC(C)(CN2c2nc(-c3ccc([N+](=O)[O-])cc3)nc3ccccc23)C1` (stereo unspecified): the RP-LC retention time is 1050 s.

The compound `CC1CCc2cc(F)ccc2N1C(=O)C12CCC(C1)C(C)(C)C2=O` (stereo unspecified) yielded an RP-LC retention time of 1020 s. Next, `Cc1scc2nc(C3CCC3)nc(N3CCC(C(=O)NC4CCCCC4)CC3)c12`: 752 s; `CCOCC(=O)N1CCC2(CCC2O)CC1` (stereo unspecified): 598 s.

The compound `O=C(CCC1CCN(c2cc(NC3CC3)ncn2)CC1)NCc1cccnc1` showed an RP-LC retention time of 548 s. Next, `Cc1cccc2nnc(N3CCN(C(=O)c4ccc(C(F)(F)F)s4)CC3)n12`: 751 s. In turn, `CN(C)CCNC(=O)c1ccc2c(c1)N(Cc1ccccc1)CCS2` came in with an RP-LC retention time of 689 s. For `CN1C(=O)CO[C@@H](C(=O)N2CCN(c3ccccc3)CC2)[C@@H]1c1ccccc1`, the RP-LC retention time stood at 796 s. `Cc1nn(-c2nc(-c3ccc(Cl)cc3)cs2)c(C)c1CC(=O)N1CCOCC1` showed an RP-LC retention time of 1030 s. As for `O=C(CSc1nnc2ccc(-c3cccc([N+](=O)[O-])c3)nn12)c1cccs1`, the RP-LC retention time turned out to be 774 s. `CCSCC[C@@H](NC(=O)CCc1c(C)c2ccc(O)c(C)c2oc1=O)C(=O)O`: the RP-LC retention time was 680 s. Regarding `Cc1noc(C)c1S(=O)(=O)N1CCC2(CC1)CC(CCOc1ccc(F)cc1)CCO2` (stereo unspecified), the RP-LC retention time was 1220 s.

`O=C(c1nc(-c2ccccc2)nc2c1OCO2)N1CCCC1`: the RP-LC retention time was determined as 815 s. Next, `Cc1ccc(NC(=O)Nc2ccc3nncn3c2)cc1F`: 723 s; `O=C(CCSc1ccc(F)cc1)Nc1nnc(-c2ccco2)o1`: 729 s; `CC(=O)Nc1ccc(SCc2nnc(-c3ccccc3)o2)cc1`: 763 s. In the case of `Cc1ccc(-c2nc3ncccn3c2Nc2ccccc2C)cc1` it was 802 s; in that of `O=C(NCCCc1ccccc1)c1ccc2c(c1)N(CC(=O)N1CCCC1)C(=O)CO2`, 706 s; in that of `CCn1cc(C(=O)Nc2ccc(F)cc2)c2cccnc21`, 824 s. The compound `O=C(COc1ccc(F)cc1)Nc1cnc(-c2cccnc2)nc1` registered an RP-LC retention time of 707 s. In the case of `COc1ccc(N2C=C(C(=O)N3CCCC3)S(=O)(=O)c3ccc(F)cc32)cc1Cl`, the RP-LC retention time came out at 838 s.

In turn, `CN(C)CCNC(=O)C1CCN(c2cnc(N3CCSCC3)nc2)CC1` gave an RP-LC retention time of 580 s. Turning to `O=C(Cc1cccs1)NC(Cc1ccccc1)c1nnc(N2CCCCC2)o1` (stereo unspecified), the RP-LC retention time amounted to 843 s. On to `COc1cccc(N2CCN(Cc3nc4nc(C)cc(N5CCCC5)n4n3)CC2)c1`, for which the RP-LC retention time was determined as 619 s. Next, `CCOCCCNCc1ccc(-c2ccc(Cl)cc2Cl)o1`: 765 s; `CCc1ccc(NC(=O)C(=O)NCC(c2ccc3c(c2)OCO3)N2CCOCC2)cc1` (stereo unspecified): 613 s; `O=C(CCCCn1c(=O)c2ccccc2n(Cc2ccccc2)c1=O)NCc1cccs1`: 847 s. In the case of `CN1C(=O)Cc2ccccc2C1C(=O)NCc1cc(F)ccc1F` (stereo unspecified) it was 716 s; in that of `CC(C)CCNC(=O)C1(C)Cn2nc(C(=O)NC(C)c3ccccc3)cc2C(=O)N1C` (stereo unspecified), 778 s. In turn, `Cc1cc(C)n(CCC(=O)N2CC[C@@H]3CN(S(C)(=O)=O)[C@@H]3C2)n1` gave an RP-LC retention time of 594 s. Compound `COc1cncc(C(=O)Nc2cc(F)cc(F)c2)c1` registered an RP-LC retention time of 797 s. With `CCOc1ccc(NC(=O)Nc2nccn(-c3cc(Cl)ccc3C)c2=O)cc1`, the RP-LC retention time was 1060 s. Compound `CS(=O)(=O)N1CCC(CNC(=O)CCSc2ccccc2)CC1` had an RP-LC retention time of 692 s. Turning to `Cc1ccc(-c2noc(C3CCCN3S(=O)(=O)c3c(C)c(C)cc(C)c3C)n2)cc1` (stereo unspecified), the RP-LC retention time turned out to be 788 s.

`CCOc1ccccc1-c1nn2c(-c3cccnc3)nnc2s1` gave an RP-LC retention time of 1040 s.

`CS(=O)(=O)N1CCC(OC2CCN(C(=O)Nc3ccc(F)cc3F)CC2)CC1` returned an RP-LC retention time of 720 s.

Consider `Cc1[nH]c2ccc(-c3nnc(SCC(=O)NCCc4nc5ccccc5[nH]4)o3)cc2c1C`, for which the RP-LC retention time was found to be 667 s. In turn, `Cc1cc(Cl)ccc1NC(=O)c1cc2n(n1)CCCC2` returned an RP-LC retention time of 975 s.

`CCOC(=O)c1nc(Nc2ccccc2F)c2ccccc2n1` registered an RP-LC retention time of 812 s. Compound `O=C(NCc1ccccc1)NCC1CCOCC1` showed an RP-LC retention time of 651 s. As for `COc1cccc(NC(=O)Cn2nc(C(=O)N3CCCC3)c3ccccc32)c1`, the RP-LC retention time stood at 792 s. As for `CCOc1ccccc1C(=O)NC(c1ccccc1)c1nnc(N2CCCC2)o1` (stereo unspecified), the RP-LC retention time worked out at 896 s. Take `NC(=O)C1(N2CCCCC2)CCN(C(=O)c2cc3ccc4cccnc4c3[nH]2)CC1`: the RP-LC retention time came to 574 s. In the case of `Cc1ccc(S(=O)(=O)N2CCc3nn(CC(C)C)c(=O)n3CC2)cc1Cl` it was 880 s; in that of `Cc1cc(C)cc(NC(=O)C2CCN(c3cncnc3N3CCOCC3)CC2)c1`, 657 s; in that of `Cc1ccc(C)c(N2CCN(c3ncc(S(=O)(=O)c4ccccc4)c(N)n3)CC2)c1`, 1230 s.

For the compound `CC(=O)N1CCC(C(=O)Nc2ncc(C)s2)CC1`, the RP-LC retention time is 617 s.

The values are drawn from the METLIN SMRT retention time set (Domingo-Almenara et al. 2019).
